The target of one experiment is recombinant DUB OTUB1 (Homo sapiens, UniProt Q96FW1). Nature of the experiment: Eosin Y visible light-mediated labelling of recombinant OTUB1. Type of experiment: biochemical. Further details: His. The conditions noted are these: OTUB1 2 μg, probe 1 3 μg; 10 W white light from 50 cm vs UV 365 nm. How it is done:
FIG. 13—labelling of OTUB1 (2 μg) with probe 1 (3 μg) visualised by anti-HA western blot. Samples were preincubated for 90 min at 37° C. before the addition of Eosin Y. Samples were incubated for a further 10 min at 37° C. in the dark (lane 3) in ambient light (lane 4) or exposed to a 10 W white light lamp from 10 cm (lane 5).
(§1) FIG. 18—comparative analysis of labelling using Eosin Y as the initiator relative to DPAP and MAP for recombinant enzymes OTUB1 (2 μg) and UCHL1 (2 μg), lanes 2-4 and 5-7, with probe 1 (3 μg) visualised by anti-HA western blot. Samples were preincubated for 90 min at 37° C. Lanes 3 and 6 were degassed for 2 min using N2 before the addition of DPAP and MAP or Eosin Y to the indicated samples. A further incubation was carried out for 10 min at 37° C. while lanes 3 and 6 were exposed to UV light (365 nm) and lanes 4, and 7 were exposed to a 10 W white light lamp from 50 cm.
Firstly, the reactivity of the probe with the recombinant DUB OTUB1 was assessed using Eosin Y as the sole photoinitiator (FIG. 13). Triethanolamine, or similar coinitiators, could be used in combination with Eosin Y. The reaction was initiated using ambient light or a 10 W white light bulb. As a control, an equivalent sample was kept in darkness for the duration of the experiment. […]

A further experiment concerns the target T1, UCHL1 (Homo sapiens, UniProt P09936).
T1 sequence (P09936 1-223): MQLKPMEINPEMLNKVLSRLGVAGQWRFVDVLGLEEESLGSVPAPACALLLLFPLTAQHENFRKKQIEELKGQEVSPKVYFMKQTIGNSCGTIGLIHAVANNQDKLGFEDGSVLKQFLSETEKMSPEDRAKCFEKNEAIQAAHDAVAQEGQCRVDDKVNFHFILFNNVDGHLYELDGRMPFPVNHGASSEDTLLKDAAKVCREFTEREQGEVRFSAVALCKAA
Nature of the experiment: Eosin Y visible light-mediated labelling of recombinant UCHL1. In kind it is biochemical. As to conditions: UCHL1 2 μg, probe 1 3 μg; 10 W white light from 50 cm vs UV 365 nm. On the procedure: as §1
Once optimised, a comparative labelling was carried out between these optimised Eosin Y labelling conditions versus the conditions optimised for DPAP and MAP labelling (FIG. 18). At this point to check the generality of the method, a further DUB, UCHL1 was tested alongside OTUB1.
Probe 1 ([…]) was incubated with OTUB1 (0.2 μL, 13.78 μg/μL, in storage buffer) or UCHL1 (3.3 μL, 0.9 μg/μL, in storage buffer). The final volume of the labelling was adjusted to 30 μL with homogenisation buffer containing TCEP (1 mM). A stock solution of Eosin Y (0.29 mM in DMSO—homogenisation buffer, 4:1) was prepared fresh before use and protected from light. The reaction was preincubated for 90 min at 37° C. with gentle shaking before the addition of Eosin Y (0.5 μL of stock for recombinant enzyme labelling, final conc.=5 μM). […]

Experiment [1] relates to DUBs in HEK 293T cell lysate. Put plainly: Thiol-ene labelling in HEK293T cell lysate (anti-HA western blot). Type of experiment: biochemical, H. sapiens. As to conditions: NEM 10 mM (FIG. 3A lane 8 vs 4). On the procedure: Controls included using NEM (10 mM), the Ub75CH2CH2Br probe (1 μg) and a labelling excluding initiators. (B) HEK 293T cell lysate (50 μg) was pre-incubated for varying periods of time with probe 1 (1 μg) before exposure to UV light (365 nm) for 2 min.
After confirming reactivity with a recombinant DUB, probe 1 was tested in HEK293T cell lysate using conditions analogous to those described for the recombinant enzyme labelling (FIG. 3). […] Exposure time to UV light was optimised, with conditions tested from […] (FIG. 3A, lanes 2-7). No labelling is observed at the 0 minute time point (FIG. 3A, lane 2). There is no discernible difference between the 1 minute and 10 minute timepoints (FIG. 3A, lanes 3 and 4). […] Two further control experiments were performed to validate the need for free thiols and to compare to an existing probe. […] Covalent bond formation therefore requires free cysteine residues. A labelling reaction with the known HA-Ub75CH2CH2Br probe was subjected to the same conditions as the thiol-ene labelling to confirm there was no degradation of the lysate under these conditions (FIG. 3A, lanes 9 and 10).
It was next examined how the pre-incubation period affected the labelling pattern (FIG. 3B, lanes 1-5). It was reasoned that prior to activation, a binding equilibrium must be established between the probe and target enzymes to yield the rapid labelling observed. […]
Background: A western blot detects proteins with antibodies after separation by electrophoresis.

The test system of experiment [2] is DUBs in HEK293T cell lysate. Nature of the experiment: PR-619 pre-incubation assay. Type of experiment: biochemical, H. sapiens. The conditions noted are these: lysate pre-incubated with increasing concentrations of PR-619, then probe 1 (1 μg) 90 min, UV 2 min. How it is done:
(§2) (A) HEK 293T cell lysate (50 μg) was pre-incubated for 90 min with increasing concentrations of PR-619 before being labelled with the probe 1 (1 μg). (B) HEK 293T cell lysate (50 μg) was pre-incubated with probe 1 (1 μg) for 90 min before PR-619 was added at increasing concentrations. (C) HEK 293T cell lysate (50 μg) was incubated with Ub75CH2CH2Br and PR 619 (100 μM) was added to one sample. All samples were exposed to UV light (365 nm) for 2 min.
(§3) It was next set out to test the modulation of labelling using the known pan DUB inhibitor, PR-619 (X. Tian, N. S. Isamiddinova, R. J. Peroutka, S. J. Goldenberg, M. R. Mattern, B. Nicholson and C. Leach, Assay Drug Dev Technol, 2011, 9, 165-173). PR-619 was incubated with cell lysate for 30 min prior to the addition of probe 1 and the labelling was then carried out under optimised conditions with a 90 min pre-incubation time. […] This implies specificity of probe 1 towards DUBs. […] PR-619 was titrated into the mixture at increasing concentrations and incubated for a further 30 min before the addition of initiators and exposure to UV light (FIG. 4B). A parallel experiment was set up with the Ub75CH2CH2Br probe for comparison (FIG. 4C). […] (FIG. 4C, lanes 2 and 3). To check the integrity of the probe and cell lysate under these conditions a silver stain of the samples was also performed (FIG. 9). […]

The test system of experiment [3] is DUBs in HEK293T cell lysate. Put plainly: PR-619 equilibrium disruption assay. Type of experiment: biochemical, H. sapiens. As to conditions: probe 1 pre-incubated with lysate 90 min, PR-619 titrated 0-100 μM, further 30 min, UV 2 min. How it is done: as §2, §3

These results are taken from patent US20210292736A1, “PROTEIN LABELLING” (The Provost, Fellows, Scholars and other Members of Board …, priority 2020, published 2021).

Chain of recombinant DUB OTUB1 (Q96FW1 whole entry): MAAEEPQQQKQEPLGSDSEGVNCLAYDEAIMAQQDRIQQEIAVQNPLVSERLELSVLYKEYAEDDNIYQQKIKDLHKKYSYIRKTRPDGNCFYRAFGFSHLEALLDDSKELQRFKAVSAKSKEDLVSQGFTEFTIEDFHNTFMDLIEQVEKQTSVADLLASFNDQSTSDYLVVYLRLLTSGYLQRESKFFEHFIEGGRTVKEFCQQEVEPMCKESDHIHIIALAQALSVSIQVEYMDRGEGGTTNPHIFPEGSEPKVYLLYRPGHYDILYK

For `O=C([O-])c1ccccc1-c1c2cc(Br)c(=O)c(Br)c-2oc2c(Br)c([O-])c(Br)cc12.[Na+].[Na+]` [Eosin Y, reference compound], the “probe capture with Eosin Y relative to DPAP and MAP” value at recombinant DUB OTUB1 and on UCHL1 was “probe capture was comparable” each time.

For the molecule `CCN1C(=O)C=CC1=O` [NEM, N-ethylmaleimide, reference compound], the “effect on probe 1 labelling” value in experiment [1] is reported as “inhibited labelling”.

On to `N#CSc1cc(SC#N)c(N)nc1N` [PR-619], for which the “effect on probe 1 labelling intensity, inhibitor before probe” value in experiment [2] is “concentration-dependent reduction in labelling intensity”. The “effect on probe 1 labelling, inhibitor added after binding equilibrium” value in experiment [3] is given as “abrogates the labelling in a concentration dependent manner”.
